We go through one molecule from BindingDB's records for doi:10.1016/j.bmcl.2006.08.117 (Johnson & Johnson Pharmaceutical, 2006).

For this assay, the target named is Histamine H4 receptor (Homo sapiens, UniProt Q9H3N8). As to the kind of experiment: Radioligand Binding Assay. As to conditions: pH 7.5; 25 °C. Here is the method:
The Ki values were calculated based on an experimentally determined appropriate Kd value according to Cheng and Prusoff.

Each structure is given as a SMILES string.

Chain of Histamine H4 receptor (Q9H3N8 whole entry): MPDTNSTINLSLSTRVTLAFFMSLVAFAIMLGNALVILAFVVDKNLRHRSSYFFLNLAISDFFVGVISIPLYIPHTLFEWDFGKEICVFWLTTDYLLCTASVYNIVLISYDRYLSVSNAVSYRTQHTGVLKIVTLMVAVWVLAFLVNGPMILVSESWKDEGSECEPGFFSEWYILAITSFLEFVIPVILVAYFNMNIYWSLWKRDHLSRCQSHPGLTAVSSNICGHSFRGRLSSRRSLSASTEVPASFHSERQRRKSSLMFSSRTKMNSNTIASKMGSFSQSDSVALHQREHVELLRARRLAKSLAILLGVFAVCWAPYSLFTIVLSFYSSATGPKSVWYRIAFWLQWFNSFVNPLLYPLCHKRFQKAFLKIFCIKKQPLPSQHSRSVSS

On to `CN1CCN(CCCOc2ccc(-c3nc4cc(Cl)ccc4[nH]3)cc2)CC1` [5-chloro-2-{4-[3-(4-methylpiperazin-1-yl)propoxy]phenyl}-1H-1,3-benzodiazole], for which the Ki (in general, the equilibrium dissociation constant of an inhibitor or competing ligand from its target) amounted to 124 nM.
